Reference: US9133207B2, “Tetrandrine derivatives with substituted 5-carbon, preparation method and use thereof” (Hangzhou Bensheng Pharmaceutical Co., Ltd., priority 2011, dated 2015)
Converted amounts (≈) assume the structure as drawn.

How the values were obtained:
[1] = tested on: H9 (acute lymphoblastic leukemia, ALL); assay: Leukemia cell growth inhibition, MTT, 72 h (Example 5); format: cell-based, human; conditions: Homo sapiens; 72 h, MTT
Source text: (§1) Leukemia cell lines: leukemia cell lines: K562/adr (drug-resistant, chronic myeloid leukemia, CML), NB4 (acute promyelocytic leukemia, AML), Kasumi-1 (acute myeloid leukemia M2 type, AML-M2), Jurkat (acute lymphoblastic leukemia, ALL), all of which are donated by Cancer Research Institute of Zhejiang University, China; and H9 (acute lymphoblastic leukemia, ALL), which is purchased from China Center for Type Culture Collection.
(§2) Reagents: The standard sample of tetrandrine (TTD) is purchased from Ci Yuan Biotechnology Co., Ltd., Shaanxi, China; and the 5-substituted tetrandrine derivatives of the present invention.
(§3) Obtaining 6000 well-growing leukemia cells and inoculating them into wells of a 96-well cell culture plate. The culture medium is a 1640 cell culture medium containing 10% fetal bovine serum. After adding the tetrandrine derivatives of different concentrations and mixing uniformly, placing the plate in a carbon dioxide cell incubator (5% CO2) at 37° C. and incubating for 72 hours. Then the viable cell concentration is determined by the MTT method.

[2] = tested on: Jurkat (acute lymphoblastic leukemia, ALL); assay: as above; format: cell-based, human; conditions: Homo sapiens, Jurkat; 72 h, MTT
Source text: as §1, §2, §3

[3] = tested on: K562/adr (drug-resistant, chronic myeloid leukemia, CML); assay: as above; format: cell-based, human; conditions: for IC50 / IC90: Homo sapiens, K562/Adr, 72 h, MTT
Source text: as §1, §2, §3

[4] = tested on: Kasumi-1 (acute myeloid leukemia M2 type, AML-M2); assay: as above; format: cell-based, human; conditions: Homo sapiens, Kasumi 1
Source text: as §1, §2, §3

[5] = tested on: NB4 (acute promyelocytic leukemia, AML); assay: as above; format: cell-based, human; conditions: Homo sapiens; 72 h, MTT
Source text: as §1, §2, §3

[6] = tested on: RPMI8226 (multiple myeloma); assay: Multiple myeloma cell growth inhibition, MTT, 72 h (Example 6); format: cell-based, human; conditions: for IC50 / IC90: Homo sapiens, RPMI-8226, 72 h, MTT, RPMI8226
Protocol: Multiple myeloma and lymphoma cell lines: RPMI8226 (multiple myeloma), purchased from Fuxiang Bio-tech Co. Ltd., Shanghai, China.
(§4) Reagents: the same as in Example 5.
Obtaining 6000 well-growing leukemia cells and inoculating them into wells of a 96-well cell culture plate. The culture medium is a 1640 cell culture medium containing 10% fetal bovine serum. After adding the tetrandrine derivatives of different concentrations and mixing uniformly, placing the plate in a carbon dioxide cell incubator (5% CO2) at 37° C. and incubated for 72 hours. Then the viable cell concentration is determined by the MTT method.

[7] = tested on: CaES-17 (esophageal cancer cell); assay: Solid tumor cell growth inhibition, MTT, 72 h (Example 7); format: cell-based, human; conditions: Homo sapiens, CaEs17; 72 h, MTT, CAES-17
Protocol: (§5) Human solid tumor cell lines: Hep-2 (laryngeal carcinoma), A549 (human lung cancer), CaES-17 (esophageal cancer cell), PC-3 (prostate cancer), CNE (nasopharyngeal carcinoma cell) and SK-OV-3 (ovarian cancer cell), all of which are purchased from China Center For Type Culture Collection; RKO (human colon adenocarcinoma cell), MGC 803 (human gastric cancer cell), MG63 (osteosarcoma), and U87 MG (malignant glioma cell), all of which are purchased from Fuxiang Bio-tech Co. Ltd., Shanghai, China; PANC-1 (pancreatic cancer), Huh? (human liver cancer cell), Becap37 (human breast cancer cell), and Hela (human cervical cancer cell), all of which are donated by Cancer Research Institute of Zhejiang University, China.
as §4
(§6) Obtaining 4000 well-growing human solid tumor cells and inoculating them into wells of a 96-well cell culture plate. The culture medium is DMEM High Glucose cell culture medium containing 10% fetal bovine serum. The plate is placed in a carbon dioxide cell incubator (5% CO2) at 37° C. and incubated for 24 hours. After been added with tetrandrine derivatives of different concentration and mixing uniformly, the plate is placed in a carbon dioxide cell incubator (5% CO2) at 37° C. and incubated for 72 hours. Then the viable cell concentration is determined by the MTT method and the cell viability (%) after drug treatment is calculated. In this experiment, the cell viability of control group (not treated with any compound) is set as 100%.

[8] = tested on: MG63 (osteosarcoma); assay: as above; format: cell-based, human; conditions: Homo sapiens; 72 h, MTT, MG-63
Protocol: as §5, §4, §6

[9] = tested on: PANC-1 (pancreatic cancer); assay: as above; format: cell-based, human; conditions: Homo sapiens; 72 h, MTT, PANC-1
Protocol: as §5, §4, §6

[10] = tested on: A549 (human lung cancer); assay: as above; format: cell-based; conditions: Homo sapiens; 72 h, MTT, A549
Protocol: as §5, §4, §6

[11] = tested on: Becap37 (human breast cancer cell); assay: as above; format: cell-based; conditions: Homo sapiens; 72 h, MTT, Becap-37
Protocol: as §5, §4, §6

[12] = tested on: Huh7 (human liver cancer cell); assay: as above; format: cell-based; conditions: Homo sapiens; 72 h, MTT, Huh-7
Protocol: as §5, §4, §6

[13] = tested on: MGC 803 (human gastric cancer cell); assay: as above; format: cell-based; conditions: Homo sapiens
Protocol: as §5, §4, §6

[14] = tested on: PC-3 (prostate cancer); assay: as above; format: cell-based, human; conditions: Homo sapiens; 72 h, MTT, PC-3
Protocol: as §5, §4, §6

[15] = tested on: RKO (human colon adenocarcinoma cell); assay: as above; format: cell-based; conditions: Homo sapiens; 72 h, MTT, RKO
Protocol: as §5, §4, §6

Compound	IC50 [1] [µg/mL]	IC90 [1] [µg/mL]	IC50 [2] [µg/mL]	IC90 [2] [µg/mL]	IC50 [3] [µg/mL]	IC90 [3] [µg/mL]	IC50 [4] [µg/mL]	IC90 [4] [µg/mL]	IC50 [6] [µg/mL]	IC90 [6] [µg/mL]	IC50 [7] [µg/mL]	IC90 [7] [µg/mL]	IC50 [8] [µg/mL]	IC90 [8] [µg/mL]	IC50 [9] [µg/mL]	IC90 [9] [µg/mL]	IC50 [10] [µg/mL]	IC90 [10] [µg/mL]	IC50 [11] [µg/mL]	IC90 [11] [µg/mL]	other results
COc1ccc2cc1Oc1ccc(cc1)C[C@H]1c3cc(c(OC)cc3CCN1C)Oc1c(OC)c(OC)c(CN3CC=CC3)c3c1[C@H](C2)N(C)CC3 [BS-TE-329]	1.19 (≈ 1.69 µM)	2 (≈ 2.84 µM)	0.91 (≈ 1.29 µM)	3.31 (≈ 4.7 µM)	0.1 (≈ 0.142 µM)	1.33 (≈ 1.89 µM)	0.5 (≈ 0.71 µM)	3.4 (≈ 4.83 µM)	0.004 (≈ 0.00568 µM)	0.29 (≈ 0.412 µM)	7.2 (≈ 10.2 µM)	26.5 (≈ 37.6 µM)	6.87 (≈ 9.76 µM)	35.6 (≈ 50.6 µM)	> 10	> 10	2.36 (≈ 3.35 µM)	4.77 (≈ 6.78 µM)	1.62 (≈ 2.3 µM)	2.48 (≈ 3.52 µM)	anti-K562/adr activity increase over tetrandrine ([3]; compared with tetrandrine): ~4 fold; IC50 [5]: 2.05 µg/mL (≈ 2.91 µM); IC90 [5]: 3.9 µg/mL (≈ 5.54 µM); anti-RPMI8226 activity increase over tetrandrine ([6]; compared with tetrandrine): ~90 fold; IC50 [12]: 8.16 µg/mL (≈ 11.6 µM); IC90 [12]: 15.9 µg/mL (≈ 22.5 µM); IC50 [13]: 1.26 µg/mL (≈ 1.79 µM); IC90 [13]: 1.82 µg/mL (≈ 2.59 µM)
COc1ccc2cc1Oc1ccc(cc1)C[C@H]1c3cc(c(OC)cc3CCN1C)Oc1c(OC)c(OC)c(Cn3cccn3)c3c1[C@H](C2)N(C)CC3 [BS-TE-330]	2.03 (≈ 2.89 µM)	4.03 (≈ 5.73 µM)	2.37 (≈ 3.37 µM)	5.51 (≈ 7.84 µM)	0.56 (≈ 0.797 µM)	2.83 (≈ 4.03 µM)	1.45 (≈ 2.06 µM)	6.95 (≈ 9.89 µM)	0.18 (≈ 0.256 µM)	1.22 (≈ 1.74 µM)	2.4 (≈ 3.41 µM)	7.94 (≈ 11.3 µM)	1.96 (≈ 2.79 µM)	4.38 (≈ 6.23 µM)	6.17 (≈ 8.78 µM)	9.8 (≈ 13.9 µM)	5.44 (≈ 7.74 µM)	16 (≈ 22.7 µM)	6 (≈ 8.54 µM)	12 (≈ 17.1 µM)	IC50 [14]: 3.68 µg/mL (≈ 5.24 µM); IC90 [14]: 7.59 µg/mL (≈ 10.8 µM); IC50 [12]: 2.96 µg/mL (≈ 4.21 µM); IC90 [12]: 4.9 µg/mL (≈ 6.97 µM); IC50 [13]: 1.61 µg/mL (≈ 2.29 µM); IC90 [13]: 6.48 µg/mL (≈ 9.22 µM); IC50 [15]: 2.5 µg/mL (≈ 3.56 µM); IC90 [15]: 4.64 µg/mL (≈ 6.6 µM)
COCc1c2c3c(c(OC)c1OC)Oc1cc4c(cc1OC)CCN(C)[C@H]4Cc1ccc(cc1)Oc1cc(ccc1OC)C[C@@H]3N(C)CC2 [BS-TE-420]	4.4 (≈ 6.6 µM)	7.68 (≈ 11.5 µM)	5.21 (≈ 7.81 µM)	16 (≈ 24 µM)	0.82 (≈ 1.23 µM)	3.85 (≈ 5.77 µM)	2.16 (≈ 3.24 µM)	9.83 (≈ 14.7 µM)	0.29 (≈ 0.435 µM)	2.25 (≈ 3.37 µM)	4.72 (≈ 7.08 µM)	18.9 (≈ 28.4 µM)	2.72 (≈ 4.08 µM)	9.89 (≈ 14.8 µM)	> 10	> 10	4.41 (≈ 6.61 µM)	12.2 (≈ 18.3 µM)	5.6 (≈ 8.4 µM)	11.5 (≈ 17.2 µM)	IC50 [14]: 5.68 µg/mL (≈ 8.52 µM); IC90 [14]: 10.9 µg/mL (≈ 16.4 µM); IC50 [12]: 4.22 µg/mL (≈ 6.33 µM); IC90 [12]: 7.06 µg/mL (≈ 10.6 µM); IC50 [13]: 5.01 µg/mL (≈ 7.51 µM); IC90 [13]: 7.56 µg/mL (≈ 11.3 µM)
COc1ccc2cc1Oc1ccc(cc1)C[C@H]1c3cc(c(OC)cc3CCN1C)Oc1c(OC)c(OC)c(COC(=O)c3ccc(N(C)C)cc3)c3c1[C@H](C2)N(C)CC3 [BS-TE-204]	2.88 (≈ 3.6 µM)	5.84 (≈ 7.3 µM)	2.66 (≈ 3.33 µM)	9.06 (≈ 11.3 µM)	1.47 (≈ 1.84 µM)	14.5 (≈ 18.1 µM)	2.32 (≈ 2.9 µM)	7.5 (≈ 9.38 µM)	0.47 (≈ 0.588 µM)	1.92 (≈ 2.4 µM)	6.81 (≈ 8.51 µM)	16.6 (≈ 20.8 µM)	1.72 (≈ 2.15 µM)	4.69 (≈ 5.86 µM)	6.47 (≈ 8.09 µM)	11.1 (≈ 13.9 µM)	3.12 (≈ 3.9 µM)	14.2 (≈ 17.7 µM)	3.66 (≈ 4.58 µM)	6.19 (≈ 7.74 µM)	IC50 [14]: 6.55 µg/mL (≈ 8.19 µM); IC90 [14]: 9 µg/mL (≈ 11.3 µM); IC50 [12]: 2.08 µg/mL (≈ 2.6 µM); IC90 [12]: 3.88 µg/mL (≈ 4.85 µM); IC50 [13]: 2.57 µg/mL (≈ 3.21 µM); IC90 [13]: 9 µg/mL (≈ 11.3 µM); IC50 [15]: 3.12 µg/mL (≈ 3.9 µM); IC90 [15]: 4.7 µg/mL (≈ 5.88 µM)
COc1ccc2cc1Oc1ccc(cc1)C[C@H]1c3cc(c(OC)cc3CCN1C)Oc1c(OC)c(OC)c(CNCc3ccccn3)c3c1[C@H](C2)N(C)CC3 [BS-TE-352]	1.31 (≈ 1.76 µM)	4.5 (≈ 6.06 µM)	1.38 (≈ 1.86 µM)	4.74 (≈ 6.38 µM)	0.63 (≈ 0.848 µM)	3 (≈ 4.04 µM)	1.1 (≈ 1.48 µM)	4.84 (≈ 6.51 µM)	0.09 (≈ 0.121 µM)	0.76 (≈ 1.02 µM)	3.06 (≈ 4.12 µM)	9.92 (≈ 13.4 µM)	1.26 (≈ 1.7 µM)	4.35 (≈ 5.86 µM)	5.79 (≈ 7.79 µM)	9 (≈ 12.1 µM)	1.35 (≈ 1.82 µM)	4.58 (≈ 6.16 µM)	1.4 (≈ 1.88 µM)	4.85 (≈ 6.53 µM)	IC50 [5]: 1.05 µg/mL (≈ 1.41 µM); IC90 [5]: 3.88 µg/mL (≈ 5.22 µM); IC50 [14]: 4.53 µg/mL (≈ 6.1 µM); IC90 [14]: 7.51 µg/mL (≈ 10.1 µM); IC50 [12]: 3.61 µg/mL (≈ 4.86 µM); IC90 [12]: 4.98 µg/mL (≈ 6.7 µM); IC50 [13]: 4.38 µg/mL (≈ 5.9 µM); IC90 [13]: > 10 µg/mL
